# Reference: US7510825B2, “Kits and methods for detection of apoptotic cells” (NST NeuroSurvival Technologies Ltd, priority 2000, dated 2009)
# Test system: Jurkat cells (T-cell leukemia)
# Assay: Binding of DDC and PI to Jurkat cells treated with CD95, confocal microscopy
# Format: cell-based, human
# Conditions: CD95 for 180 minutes; confocal microscope
# Method: For microscopic analysis the concentration of cells should be within 1-2×10^7/ml. […] If fixation is needed, it should be performed after DDC staining. • 1. Adjusting the cells to 1-2×10^7/ml in buffer. • 2. Transferring 96 μl from the cell suspension to an eppendorf and staining the cells by adding 4 μl from the DDC solution. Incubating for 10-40 minutes at RT protected from light. • 3. A double labeling could be conducted with PI, if desired. In such a case, 1 μl is added from the PI solution. • 4, Placing the cell suspension on a glass slide. Covering the cells with a glass coverslip. Alternatively, for analyzing adherent cells, cells may grow directly on coverslip. Staining the cells by incubation with DDC (4 μl of DDC/96 μl buffer reaction) or 10-40 minutes and PI (1 μl). […] Observing the cells under fluorescent or confocal microscope equipped with the appropriate UV filter (excitation at 360-370 nm, band pass, and emission at 420 nm, barrier filter. Using a Triple filter (Hoechst/FITC/Texas Red) allows concomitant observation of both DDC and PI. Quantitative Assay for DDC Accumulation using Fluorescene Spectroscopy
# Jurkat cells (T-cell leukemia) were treated with CD95 for 180 minutes and incubated with DDC followed by incubation with Propidium Iodide (PI) as detailed in DDC protocols IIIC. The cells were analyzed under fluorescent confocal microscope using a UV filter. […]
smiles,measurement,value
"CC[N+](C)(CC)CCC[n+]1c(-c2ccccc2)c2cc(N)ccc2c2ccc(N)cc21.[I-].[I-] [PI, Propidium Iodide, reference compound]",cellular staining pattern in apoptotic cells,Nuclear staining by PI can be seen only in late apoptotic cells
